Laboratory results from US20260176320A1, “MODULATORS OF G-PROTEIN COUPLED RECEPTORS” (priority 2018, published 2026).
Read-outs that look alike come from different tables or passages of the source. Numbered stars: 1 amine (or outer) side, 2 acyl side, 3 side chain; on linkers, the order of the positions; unused ones are H or OH. Square brackets hold non-standard residues; d marks the D form. Side chains are listed from the residue outwards. Peptide text beside a SMILES is read from it. * marks the point of attachment. Ala(1H-tetrazol-5-yl) = N[C@@H](Cc1nnn[nH]1)C(=O)O; γGlu = O=C(O)[C@H](CCC(=O)[*:2])N[*:1]; Palmitoyl = CCCCCCCCCCCCCCCC(=O)*; X6 = O=C(CSCC(=O)*)NCCN1CCCCC1=O; Aib = CC(C)(N)C(=O)O

How the values were obtained:
Assay type in all cases: cell-based
GLP-1R [1] = molecular target: T1, GLP-1R (Homo sapiens, UniProt P43220); test: HitHunter cAMP assay (GLP-1R); settings: Table 3A, cAMP; for Emax: read-out: (Emax) GLP-1R
Summary of the method: (§1)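 Suspension cells (10,000/well) in HBSS with 10 mM HEPES, 625 μM IBMX, 0.2% BSA exposed to 22-point 2-fold agonist series in duplicate for 30 min at room temperature. cAMP measured by antibody immunocompetition with overnight development, luminescence read-out.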

GLP-1R [2] = molecular target: T1, GLP-1R; test: PathHunter β-arrestin assay
Summary of the method: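 Cells (5,000/well) plated overnight, then exposed to a 22-point 2-fold agonist dilution series in medium with 0.2% BSA for 90 min at 37 °C, 5% CO2. PathHunter detection reagent added; after 3 h at room temperature in the dark, luminescence read.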

GIP-R = molecular target: T2, GIP-R (Homo sapiens, UniProt P48546); test: HitHunter cAMP assay (GIP-R); settings: Table 3A, cAMP; for Emax: read-out: (Emax) GIP-R
T2 sequence (P48546 22-466): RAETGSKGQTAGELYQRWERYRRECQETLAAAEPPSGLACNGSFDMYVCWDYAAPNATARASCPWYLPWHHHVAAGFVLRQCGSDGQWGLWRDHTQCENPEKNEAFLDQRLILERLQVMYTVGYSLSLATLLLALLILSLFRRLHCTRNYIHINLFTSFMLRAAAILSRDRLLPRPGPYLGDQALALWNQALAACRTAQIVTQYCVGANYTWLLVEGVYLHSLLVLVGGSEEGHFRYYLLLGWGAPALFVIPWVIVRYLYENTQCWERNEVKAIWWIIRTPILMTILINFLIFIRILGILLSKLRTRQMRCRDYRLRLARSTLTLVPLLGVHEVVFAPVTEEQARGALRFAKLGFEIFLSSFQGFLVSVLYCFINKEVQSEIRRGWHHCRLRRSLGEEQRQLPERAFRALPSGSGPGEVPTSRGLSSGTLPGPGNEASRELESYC
Summary of the method: as §1

[3] = PathHunter β-arrestin assay, read-out: β-arrestin activity EC50

T1 sequence (P43220 24-463): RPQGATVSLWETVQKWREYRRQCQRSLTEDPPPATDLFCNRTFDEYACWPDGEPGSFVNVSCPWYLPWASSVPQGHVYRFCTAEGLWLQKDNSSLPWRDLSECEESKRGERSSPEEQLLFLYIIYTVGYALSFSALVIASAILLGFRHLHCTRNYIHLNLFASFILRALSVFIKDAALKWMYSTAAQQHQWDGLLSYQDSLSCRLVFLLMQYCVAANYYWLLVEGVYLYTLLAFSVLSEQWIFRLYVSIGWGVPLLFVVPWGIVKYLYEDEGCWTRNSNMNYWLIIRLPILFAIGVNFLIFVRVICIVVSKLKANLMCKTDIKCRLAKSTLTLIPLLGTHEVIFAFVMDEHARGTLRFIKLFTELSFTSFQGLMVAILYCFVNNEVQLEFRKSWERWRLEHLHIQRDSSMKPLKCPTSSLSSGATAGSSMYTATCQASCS

CCCCCCCCCCCCCCCC(=O)N[C@@H](CCC(=O)NCCCC[C@H](NC(=O)[C@H](CO)NC(=O)[C@@H]1CCCN1C(=O)[C@@H]1CCCN1C(=O)[C@@H]1CCCN1C(=O)[C@H](C)NC(=O)CNC(=O)[C@H](CO)NC(=O)[C@H](CO)NC(=O)[C@@H]1CCCN1C(=O)CNC(=O)CNC(=O)[C@H](C)NC(=O)[C@H](CC(C)C)NC(=O)[C@H](CC(C)C)NC(=O)[C@H](Cc1c[nH]c2ccccc12)NC(=O)[C@H](CC(N)=O)NC(=O)[C@@H](NC(=O)[C@H](Cc1ccccc1)NC(=O)[C@H](CCC(=O)O)NC(=O)C(C)(C)NC(=O)[C@H](C)NC(=O)[C@H](C)NC(=O)[C@H](CCC(N)=O)NC(=O)[C@H](CCCCN)NC(=O)[C@H](CC(=O)O)NC(=O)[C@H](CC(C)C)NC(=O)[C@H](Cc1ccc(O)cc1)NC(=O)[C@@H](NC(=O)[C@H](CO)NC(=O)[C@H](Cc1ccc(O)cc1)NC(=O)[C@H](CC(=O)O)NC(=O)[C@H](CO)NC(=O)[C@@H](NC(=O)[C@H](Cc1ccccc1)NC(=O)[C@@H](NC(=O)CNC(=O)[C@H](CC(=O)O)NC(=O)CSCC(=O)NCCN1CCCCC1=O)[C@@H](C)O)[C@@H](C)O)[C@@H](C)CC)C(C)C)C(N)=O)C(=O)O [Compound 217] (X6-DGTFTSDYSIYLDKQAA[Aib]EFVNWLLAGGPSSGAPPPSK([γGlu-Palmitoyl])-NH2)
Emax (GLP-1R [1]): 97%
EC50 (GLP-1R [1]; read-out: EC50 GLP-1R/nM): < 0.1 nM
EC50 (GLP-1R [2]; [3]): > 1000 nM
Emax (GIP-R): 58%
EC50 (GIP-R; read-out: EC50 GIP-R/nM): 1 to 10 nM

CCCCCCCCCCCCCCCC(=O)N[C@@H](CCC(=O)NCCCC[C@H](NC(=O)[C@H](CO)NC(=O)[C@@H]1CCCN1C(=O)[C@@H]1CCCN1C(=O)[C@@H]1CCCN1C(=O)[C@H](C)NC(=O)CNC(=O)[C@H](CO)NC(=O)[C@H](CO)NC(=O)[C@@H]1CCCN1C(=O)CNC(=O)CNC(=O)[C@H](C)NC(=O)[C@H](CC(C)C)NC(=O)[C@H](CC(C)C)NC(=O)[C@H](Cc1c[nH]c2ccccc12)NC(=O)[C@H](CC(N)=O)NC(=O)[C@@H](NC(=O)[C@H](Cc1ccccc1)NC(=O)[C@H](CCC(=O)O)NC(=O)C(C)(C)NC(=O)[C@H](C)NC(=O)[C@H](C)NC(=O)[C@H](CCC(N)=O)NC(=O)[C@H](CCCCN)NC(=O)[C@H](CC(=O)O)NC(=O)[C@H](CC(C)C)NC(=O)[C@H](Cc1ccc(O)cc1)NC(=O)[C@@H](NC(=O)[C@H](CO)NC(=O)[C@H](Cc1ccc(O)cc1)NC(=O)[C@H](CC(=O)O)NC(=O)[C@H](CO)NC(=O)[C@@H](NC(=O)[C@H](Cc1ccccc1)NC(=O)[C@@H](NC(=O)CNC(=O)[C@@H](CC(=O)O)NC(=O)CSCC(=O)NCCN1CCCCC1=O)[C@@H](C)O)[C@@H](C)O)[C@@H](C)CC)C(C)C)C(N)=O)C(=O)O [Compound 218] (X6-[dD]GTFTSDYSIYLDKQAA[Aib]EFVNWLLAGGPSSGAPPPSK([γGlu-Palmitoyl])-NH2)
Emax (GLP-1R [1]): 96%
EC50 (GLP-1R [1]; read-out: EC50 GLP-1R/nM): 0.1 to 1 nM
EC50 (GLP-1R [2]; [3]): > 1000 nM
Emax (GIP-R): 19 to 23%

CCCCCCCCCCCCCCCC(=O)N[C@@H](CCC(=O)NCCCC[C@H](NC(=O)[C@H](CO)NC(=O)[C@@H]1CCCN1C(=O)[C@@H]1CCCN1C(=O)[C@@H]1CCCN1C(=O)[C@H](C)NC(=O)CNC(=O)[C@H](CO)NC(=O)[C@H](CO)NC(=O)[C@@H]1CCCN1C(=O)CNC(=O)CNC(=O)[C@H](C)NC(=O)[C@H](CC(C)C)NC(=O)[C@H](CC(C)C)NC(=O)[C@H](Cc1c[nH]c2ccccc12)NC(=O)[C@H](CC(N)=O)NC(=O)[C@@H](NC(=O)[C@H](Cc1ccccc1)NC(=O)[C@H](CCC(=O)O)NC(=O)C(C)(C)NC(=O)[C@H](C)NC(=O)[C@H](C)NC(=O)[C@H](CCC(N)=O)NC(=O)[C@H](CCCCN)NC(=O)[C@H](CC(=O)O)NC(=O)[C@H](CC(C)C)NC(=O)[C@H](Cc1ccc(O)cc1)NC(=O)[C@@H](NC(=O)[C@H](CO)NC(=O)[C@H](Cc1ccc(O)cc1)NC(=O)[C@H](CC(=O)O)NC(=O)[C@H](CO)NC(=O)[C@@H](NC(=O)[C@H](Cc1ccccc1)NC(=O)[C@@H](NC(=O)CNC(=O)[C@H](Cc1nn[nH]n1)NC(=O)CSCC(=O)NCCN1CCCCC1=O)[C@@H](C)O)[C@@H](C)O)[C@@H](C)CC)C(C)C)C(N)=O)C(=O)O [Compound 223] (X6-[Ala(1H-tetrazol-5-yl)]GTFTSDYSIYLDKQAA[Aib]EFVNWLLAGGPSSGAPPPSK([γGlu-Palmitoyl])-NH2)
Emax (GLP-1R [1]): 101%
EC50 (GLP-1R [1]; read-out: EC50 GLP-1R/nM): < 0.1 nM
EC50 (GLP-1R [2]; [3]): 10 to 1000 nM
Emax (GIP-R): 91%
EC50 (GIP-R; read-out: EC50 GIP-R/nM): 0.1 to 1 nM

CCCCCCCCCCCCCCCC(=O)N[C@@H](CCC(=O)NCCCC[C@H](NC(=O)[C@H](CO)NC(=O)[C@@H]1CCCN1C(=O)[C@@H]1CCCN1C(=O)[C@@H]1CCCN1C(=O)[C@H](C)NC(=O)CNC(=O)[C@H](CO)NC(=O)[C@H](CO)NC(=O)[C@@H]1CCCN1C(=O)CNC(=O)CNC(=O)[C@H](C)NC(=O)[C@H](CC(C)C)NC(=O)[C@H](CC(C)C)NC(=O)[C@H](Cc1c[nH]c2ccccc12)NC(=O)[C@H](CC(N)=O)NC(=O)[C@@H](NC(=O)[C@H](Cc1ccccc1)NC(=O)[C@H](CCC(=O)O)NC(=O)C(C)(C)NC(=O)[C@H](C)NC(=O)[C@H](C)NC(=O)[C@H](CCC(N)=O)NC(=O)[C@H](CCCCN)NC(=O)[C@H](CC(=O)O)NC(=O)[C@H](CC(C)C)NC(=O)[C@](C)(Cc1ccc(O)cc1)NC(=O)[C@@H](NC(=O)[C@H](CO)NC(=O)[C@H](Cc1ccc(O)cc1)NC(=O)[C@H](CC(=O)O)NC(=O)[C@H](CO)NC(=O)[C@@H](NC(=O)[C@H](Cc1ccccc1)NC(=O)[C@@H](NC(=O)CNC(=O)[C@H](CCC(=O)O)NC(=O)CSCC(=O)NCCN1CCCCC1=O)[C@@H](C)O)[C@@H](C)O)[C@@H](C)CC)C(C)C)C(N)=O)C(=O)O [Compound 225]
EC50 (GLP-1R [1]; read-out: EC50 GLP-1R/nM): 0.1 to 1 nM
EC50 (GLP-1R [2]; [3]): > 1000 nM
Emax (GIP-R): 70 to 80%
EC50 (GIP-R; read-out: EC50 GIP-R/nM): 1 to 10 nM

CCCCCCCCCCCCCCCC(=O)N[C@@H](CCC(=O)NCCCC[C@H](NC(=O)[C@H](CO)NC(=O)[C@@H]1CCCN1C(=O)[C@@H]1CCCN1C(=O)[C@@H]1CCCN1C(=O)[C@H](C)NC(=O)CNC(=O)[C@H](CO)NC(=O)[C@H](CO)NC(=O)[C@@H]1CCCN1C(=O)CNC(=O)CNC(=O)[C@H](C)NC(=O)[C@H](CC(C)C)NC(=O)[C@H](CC(C)C)NC(=O)[C@H](Cc1c[nH]c2ccccc12)NC(=O)[C@H](CC(N)=O)NC(=O)[C@@H](NC(=O)[C@H](Cc1ccccc1)NC(=O)[C@H](CCC(=O)O)NC(=O)C(C)(C)NC(=O)[C@H](C)NC(=O)[C@H](C)NC(=O)[C@H](CCC(N)=O)NC(=O)[C@H](CCCCN)NC(=O)[C@H](CC(=O)O)NC(=O)[C@H](CC(C)C)NC(=O)[C@H](Cc1ccc(O)cc1)NC(=O)[C@@H](NC(=O)[C@H](CO)NC(=O)[C@H](Cc1ccc(O)cc1)NC(=O)[C@H](CC(=O)O)NC(=O)[C@H](CO)NC(=O)[C@@H](NC(=O)[C@H](Cc1ccccc1)NC(=O)[C@@H](NC(=O)CNC(=O)[C@H](CCC(=O)O)NC(=O)CSCC(=O)NCC(=O)N1CCCCC1)[C@@H](C)O)[C@@H](C)O)[C@@H](C)CC)C(C)C)C(N)=O)C(=O)O [Compound 226]
Emax (GLP-1R [1]): 89%
EC50 (GLP-1R [1]; read-out: EC50 GLP-1R/nM): 1 to 10 nM
EC50 (GLP-1R [2]; [3]): > 1000 nM
Emax (GIP-R): 17%
EC50 (GIP-R; read-out: EC50 GIP-R/nM): 100 to 1000 nM

CCCCCCCCCCCCCCCC(=O)N[C@@H](CCC(=O)NCCCC[C@H](NC(=O)[C@H](CO)NC(=O)[C@@H]1CCCN1C(=O)[C@@H]1CCCN1C(=O)[C@@H]1CCCN1C(=O)[C@H](C)NC(=O)CNC(=O)[C@H](CO)NC(=O)[C@H](CO)NC(=O)[C@@H]1CCCN1C(=O)CNC(=O)CNC(=O)[C@H](C)NC(=O)[C@H](CC(C)C)NC(=O)[C@H](CC(C)C)NC(=O)[C@H](Cc1c[nH]c2ccccc12)NC(=O)[C@H](CC(N)=O)NC(=O)[C@@H](NC(=O)[C@H](Cc1ccccc1)NC(=O)[C@H](CCC(=O)O)NC(=O)C(C)(C)NC(=O)[C@H](C)NC(=O)[C@H](C)NC(=O)[C@H](CCC(N)=O)NC(=O)[C@H](CCCCN)NC(=O)[C@H](CC(=O)O)NC(=O)[C@H](CC(C)C)NC(=O)[C@H](Cc1ccc(O)cc1)NC(=O)[C@@H](NC(=O)[C@H](CO)NC(=O)[C@H](Cc1ccc(O)cc1)NC(=O)[C@H](CC(=O)O)NC(=O)[C@H](CO)NC(=O)[C@@H](NC(=O)[C@H](Cc1ccccc1)NC(=O)[C@@H](NC(=O)CNC(=O)[C@H](CCC(=O)O)NC(=O)CSCC(=O)NCCn1cccc(C)c1=O)[C@@H](C)O)[C@@H](C)O)[C@@H](C)CC)C(C)C)C(N)=O)C(=O)O [Compound 232]
EC50 (GLP-1R [1]; EC50 GLP-1R/nM): 0.1 to 1 nM
Emax (GLP-1R [1]): 95%
EC50 (GLP-1R [2]): > 1000 nM
EC50 (GIP-R; EC50 GIP-R/nM): 1 to 10 nM
Emax (GIP-R): 78%
